Measurements published in patent US5684017A, “Benzenesulfonylimine derivatives as inhibitors of IL-1 action” (Merrell Pharmaceuticals Inc., priority 1996, dated 1997).

Assays:
[1] = Interleukin-1-Beta-Induced Tumor Necrosis Factor Alpha Release by Human Macrophages; assay type: cell-based; settings: Macrophage; recombinant human IL-1β 20 ng/mL; compound 1 h before stimulation; supernatants after 24 h, ELISA; read-out: IC50 (IL-1β-induced TNFα release)
Protocol: (§1) The compounds of Formula I inhibit IL-1 action. One mechanism for inhibiting IL-1 action is to inhibit IL-1 production. Inhibition of IL-1 production was tested using lipopolysaccharide (LPS) stimulated macrophages. Inhibition of IL-1 induced production of cytokines was tested by measuring the inhibition of TNFα (tumor necrosis factor alpha) synthesis from IL-1 stimulated macrophages. The protocols for these test procedures are described below.
Interleukin-1-Beta-Induced Tumor Necrosis Factor Alpha Release by Human Macrophages
To determine the inhibitory concentrations for the test compounds against interleukin-1 beta (IL-1β)-induced tumor necrosis factor alpha (TNFα) release by human peripheral blood monocyte-derived macrophages. It should be understood that this is a test of the ability of the test compounds to modulate, i.e. inhibit, the activity of IL-1β by measuring the inhibition of IL-1β induced release of TNFα.
Source Human Peripheral Blood Monocyte-Derived Macrophages:
(§2) Venous blood is collected form healthy volunteers in 10 mM sodium citrate (2 mL sterile sodium citrate for 40 mL blood). Mononuclear cells are isolated with the Leucoprep tubes (Becton Dickinson, product number 2752 or 2751) spun at 1500 g for fifteen minutes. Aliquots of 3×10^6 mononuclear cells are added to 24-well tissue culture plates (Corning) in RPMI-1640. After 1 hour incubation at 37° C., non-adherent cells are gently rinsed off. The adherent cells (macrophages) are given back fresh medium RPMI-1640, 1 mL/well.
Macrophage monolayer cultures are pretreated with compounds one hour prior to IL-1β (20 ng/mL, recombinant human IL-1β) stimulation. Compounds dissolved in 95% ethanol or DMSO would require additional monolayer cultures treated with 10 or 2.5 μl 95% ethanol or DMSO, respectively. Culture supernatants are collected 24 hours later and are tested for TNF-α using a commercial ELISA kit (Cistron).
The TNF-α concentration in the culture supernatant is calculated by a standard curve generated from a series of known concentrations. Potency of compound is reported in IC50 (UM).

[2] = tested on: interleukin-1 beta (IL-1β) release (production) by human peripheral blood monocyte-derived macrophages; assay: Endotoxin-Induced Interleukin-1 Beta Release by Human Macrophages; assay type: cell-based; settings: Macrophage, endotoxin 20 ng/mL (Salmonella typhimurium Re-mutant), compound 1 h before stimulation, supernatants after 24 h, ELISA
Protocol: as §1
Endotoxin-Induced Interleukin-1 Beta Release by Human Macrophages
The objective of this test is to determine the inhibitory concentrations for the test compounds against endotoxin-induced interleukin-1 beta (IL-1β) release (production) by human peripheral blood monocyte-derived macrophages.
The source of the human peripheral blood monocyte-derived macrophages is as follows:
as §2, with “collected from” for “collected form”, “(Becton Dickenson,” for “(Becton Dickinson,”, “for 15” for “for fifteen”, “After one” for “After 1”, “off. […]” for “off. The adherent cells (macrophages) are given back fresh medium RPMI-1640, 1 mL/well.”
The IL-1β concentration in the culture supernatant is calculated by a standard curve generated from a series of known concentrations. […]

[3] = mammal having an arthritic condition; U.S. Pat. No. 5,122,534; cited from earlier work
[4] = tested on: IL-1 production; settings: cited from earlier work

SMILES | IC50 [1] [µM] | IC50 [2] [µM] | serum LDL cholesterol [3] | serum triglycerides [3] | total level of serum cholesterol [3] | block IL-1 production [4]
O=C(c1ccccc1)c1cc(=NS(=O)(=O)c2ccccc2)c2ccccc2o1 [2-Benzoyl-4-benzenesulfonylimino-4H-chromene] | 1.3 |  |  |  |  | 
CC(=O)c1cc(=NS(=O)(=O)c2ccccc2)c2c(Cl)cc(Cl)cc2[nH]1 [5,7-Dichloro-2-acetyl-4-[benzenesulfonylimino]-1,4-dihydroquinoline] | 8 | 4 |  |  |  | 
O=C(c1ccccc1)c1cc(=NS(=O)(=O)c2ccccc2)c2c(Cl)cc(Cl)cc2[nH]1 [5,7-Dichloro-2-benzoyl-4-[benzenesulfonylimino]-1,4-dihydroquinoline] | 3 | 2 |  |  |  | 
NC(=O)N1C(=O)/C(=C(\O)c2cccs2)c2cc(Cl)ccc21 [Tenidap] |  |  | reduces | reduces | reduces | known to block IL-1 production
